Results reported in patent US20040043420A1, “Method of identifying conformation-sensitive binding peptides and uses thereof” (priority 2003, published 2004).

T1: androgen receptor (Homo sapiens, UniProt P10275)
T1 sequence (P10275 1-920): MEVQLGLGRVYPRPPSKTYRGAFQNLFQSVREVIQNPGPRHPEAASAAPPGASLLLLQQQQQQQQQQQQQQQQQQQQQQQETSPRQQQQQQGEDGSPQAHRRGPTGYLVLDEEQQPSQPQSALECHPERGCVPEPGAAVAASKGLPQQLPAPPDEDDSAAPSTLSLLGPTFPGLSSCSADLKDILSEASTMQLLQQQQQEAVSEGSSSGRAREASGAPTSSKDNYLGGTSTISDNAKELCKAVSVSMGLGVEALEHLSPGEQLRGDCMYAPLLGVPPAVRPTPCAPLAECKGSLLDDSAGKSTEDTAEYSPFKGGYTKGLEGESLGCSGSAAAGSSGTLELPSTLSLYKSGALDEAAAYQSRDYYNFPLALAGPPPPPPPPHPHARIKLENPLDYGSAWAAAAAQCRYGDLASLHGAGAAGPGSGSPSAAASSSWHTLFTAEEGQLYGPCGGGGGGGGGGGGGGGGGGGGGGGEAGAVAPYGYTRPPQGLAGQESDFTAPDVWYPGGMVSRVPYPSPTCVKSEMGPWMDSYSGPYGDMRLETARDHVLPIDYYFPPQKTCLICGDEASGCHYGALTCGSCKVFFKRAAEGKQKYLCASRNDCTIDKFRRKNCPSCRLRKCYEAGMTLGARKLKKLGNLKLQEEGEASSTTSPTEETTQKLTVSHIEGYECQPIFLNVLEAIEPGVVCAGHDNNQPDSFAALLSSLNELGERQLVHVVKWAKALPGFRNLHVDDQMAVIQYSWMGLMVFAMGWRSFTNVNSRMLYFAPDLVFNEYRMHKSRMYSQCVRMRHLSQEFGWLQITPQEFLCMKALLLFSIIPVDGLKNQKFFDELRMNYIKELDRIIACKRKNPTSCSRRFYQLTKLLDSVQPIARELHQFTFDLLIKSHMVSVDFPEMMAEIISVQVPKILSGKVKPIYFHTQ

T2: ER α, P03372
T2 chain: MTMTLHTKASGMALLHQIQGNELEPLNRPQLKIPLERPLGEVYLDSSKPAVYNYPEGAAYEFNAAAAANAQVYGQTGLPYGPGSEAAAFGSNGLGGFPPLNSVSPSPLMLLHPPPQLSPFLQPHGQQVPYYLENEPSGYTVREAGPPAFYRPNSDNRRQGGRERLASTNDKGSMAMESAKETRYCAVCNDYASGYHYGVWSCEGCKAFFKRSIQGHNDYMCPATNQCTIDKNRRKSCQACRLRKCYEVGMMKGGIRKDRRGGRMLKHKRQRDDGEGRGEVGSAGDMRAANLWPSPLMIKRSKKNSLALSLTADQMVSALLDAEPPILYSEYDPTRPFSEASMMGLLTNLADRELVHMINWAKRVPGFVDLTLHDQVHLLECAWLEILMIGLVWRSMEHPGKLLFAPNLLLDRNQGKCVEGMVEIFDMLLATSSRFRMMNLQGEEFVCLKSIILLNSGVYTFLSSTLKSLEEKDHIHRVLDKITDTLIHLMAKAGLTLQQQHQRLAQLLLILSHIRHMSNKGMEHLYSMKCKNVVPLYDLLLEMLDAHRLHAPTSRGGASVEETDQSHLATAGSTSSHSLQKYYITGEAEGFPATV


What was measured:
androgen receptor [1] = molecular target: T1, androgen receptor; format: cell-based; design: expressed in transfected cells
Source text: We used a mammalian two-hybrid system to determine specificities of the AR-binding peptides previously identified, through screening of the aforementioned yeast library, as ligand-dependent in their binding activity. Ligand was provided to the cells so the interaction could be observed. The human hepatoma cell line, Huh-7, was used as the recipient of two-hybrid vectors, pM and pVP16 (Clontech) (FIGS. 6A and 6B), containing fusions with peptide and AR, respectively. According to Clontech literature, the Clontech vectors pM and VP16 generate fusions of protein X with the GAL4 DNA-BD and fusions of protein Y with the VP16AD, in the Mammalian MM Two-Hybrid Assay Kit (#K1602-1). (Note: pM and VP16 contain unique cloning sites in the same order and reading frame as the DNA-BD and AD, respectively, vectors in the yeast […] Two-Hybrid Systems.) A third vector, pG5CAT, provides a CAT reporter gene under the control of a GAL4-responsive element and minimal promoter of the adenovirus E1b. The three vectors are cotransfected into any suitable mammalian host cell line by standard methods. The interaction between proteins X and Y is then assayed by measuring CAT gene expression by any standard method. In the absence-of activation (i.e., no protein-protein interaction), the minimal E1b promoter will not express significant levels of CAT.
Briefly, cells are seeded in a 24-well culture plate to a density of 50-80% confluence in phenol red-free media containing charcoal-dextran stripped fetal bovine serum (10%). Following incubation overnight, cells are transfected with plasmids pM-peptide, pVP16-AR, pCMV-b-gal, and p5XGAL-Luc3 DNAs using lipofectamine 2000 (LifeTech) according to the manufacturer's protocol. Transfections are allowed to proceed for 6 hours and the transfection media is aspirated and replaced with recovery media for 18 hours. Following the recovery period, cells are treated with compound for 24 hours prior to cell harvesting. Cells are washed with PBS and then lysed using the lysis buffer from the Galacto-Light Plus β-galactosidase assay kit (Tropix). Assays for luciferase and β-galactosidase were performed as described by the manufacturer. Peptide/AR interactions are described in terms of the luciferase activity normalized for transfection efficiency using β-galactosidase activity (see FIG. 4A). Two types of useful information arose from these methods: 1) we generated a panel of useful peptide probes to analyze the conformational state of AR, and 2) we “fingerprinted” AR modulators with respect to AR conformation (FIG. 4B). […] FIG. 4B is the converse of 4A. It compares the ability of six ligands (DHT, MPA, CYP, RU486, FLUT and DHEAs to interact with AR in the presence of each of four peptides (D30, 5G11, B8H3 and […]). Thus, it is a “fingerprint” of each of the six ligands using a four peptide panel. (Note that “1269” and D30″ refer to the same peptide.)

androgen receptor [2] = molecular target: T1, androgen receptor; assay: Yeast two-hybrid screening of unbiased X15 peptide library, ligand-induced β-galactosidase activity (FIG. 3, Table 503); format: cell-based; design: expressed in transfected cells; host or cells: Saccharomyces cerevisiae PJ69-4α
Source text: Our library contained predominantly 15 random amino acid residues/peptide in order to identify motifs that might interact with nuclear receptor domains. If ligand is provided to the cells, one can screen for peptides that interact with the ligand-bound receptor. […] Included at the ends of the oligonucleotide were the synthetic restriction endonuclease cleavage sites, EcoRI or Mfe I (5′ end) and Sal I (3′ end). Oligonucleotides were annealed, then cleaved with excess restriction endonuclease and purified on agarose gels. The purified set of oligonucleotides was subcloned as an in-frame carboxy-terminal fusion to a Gal4 DNA binding domain (plasmid vector pMA424 derivative). […] The transformation mix was divided and grown on plates of selective media containing ligand and 25 mM 3-aminotriazole at 30° C. until colonies appeared in 3-7 days. […] Dihydrotestosterone (DHT) and medroxyprogesterone (MPA) were added to the media at 100 nM to identify peptides that interact with the receptor in the presence of ligand. After colonies appeared they were picked and dispersed into individual wells of a 96-well plate containing rich media (YPD).
To determine ligand dependence, two microliter aliquots were removed from the cell suspension, and arrayed and spotted onto each of two rectangular agar plates, one with 100 nM ligand and one without ligand. Growth was monitored daily.
A secondary test of ligand dependent activation was performed using the integrated GAL4-driven lacZ gene. Cell suspensions of the initial positive clones were diluted 20-fold into 20 microliters of rich media in a microplate and grown overnight at 30° C. in the presence and absence of ligand. Microplates were centrifuged for 5 minutes at 3000 rpm in a swinging table top centrifuge to pellet the yeast cells, and the overlying media was aspirated. […] An OD650 density determination was made to normalize the β-galactosidase activity. β-galactosidase activity was monitored following the addition of buffer containing chlorophenol red-1-galactopyranoside (CPRG) (Boehringer Mannheim) substrate at a final concentration of 0.5 mM. […] The maximum slope value of this measurement was normalized to cell density from the initial OD650 value, and the relative ligand dependence of β-galactosidase was determined by comparing the values plus and minus ligand.
In FIG. 3, all of these ligands were tested. The plasmids from true positives were extracted using standard yeast extraction protocols and re-transformed to verify the positive phenotype.

androgen receptor [3] = molecular target: T1, androgen receptor; format: cell-based; design: expressed in transfected cells; remark: listed apart in the source
ER α, P03372 = molecular target: T2, ER α, P03372; assay: peptide probe binding to ERα, all modulators

Molecule	Mammalian Cell Specificity Graph (FIG. 4): CYP. (androgen receptor [1])	Mammalian Cell Specificity Graph (FIG. 4): DHT (androgen receptor [1]; ligand DHT)	Mammalian Cell Specificity Graph (FIG. 4): MPA (androgen receptor [1]; ligand MPA)	Mammalian Cell Specificity Graph (FIG. 4): RU486 (androgen receptor [1]; ligand RU486)	Mammalian Cell Specificity Graph (FIG. 4): no compound (androgen receptor [1]; no compound)	Fold induction (androgen receptor [2])	Yeast Specificity Graph (FIG. 3): CPA (androgen receptor [2]; ligand CPA)	Yeast Specificity Graph (FIG. 3): DHT (androgen receptor [2]; ligand DHT)	Yeast Specificity Graph (FIG. 3): RU (androgen receptor [2]; ligand RU)	Yeast Specificity Graph (FIG. 3): No Lig (androgen receptor [2]; no ligand)	Binding to the androgen receptor in the presence of agonists and known antagonists (androgen receptor [3]; ligand present (agonists, known antagonists))	Binding to the androgen receptor in the absence of ligand (androgen receptor [3]; no ligand)	Equiv. (ER α, P03372)
EFQQCMCAEVKSWLGGSLDLOPS* [B8E9]	16.02 Relative Light Units	19.64 Relative Light Units	18.51 Relative Light Units	10.1916 Relative Light Units	0.2091 Relative Light Units	4	0.5635	1.75	0.8	0.4989	displays binding	not in the absence of ligand	–
SRTWESPLGTWEWSR (modifications not checked) [#13 ER]	–	–	–	–	–	–	–	–	–	–	–	–	0%
